The values that follow come from patent US20080249075A1, “C11 Modified Retrosteroids as Progesterone Receptor Modulator Compounds” (Solvay Pharmaceuticals GmbH, priority 2007, published 2008).

SMILES strings stand for the structures. Where only a bound is given, the exact number is not on record here.

Broadly, the inhibition is the share of the control response that was lost under treatment. Usually pIC50 stands for the IC50 on a negative log10 scale, so that one unit is a factor of ten. Low values mean a high IC50, high ones a low IC50.

For test [1], the target named is T1, human progesterone receptor (Homo sapiens, UniProt P06401).
T1 sequence (P06401 679-933 limits assumed): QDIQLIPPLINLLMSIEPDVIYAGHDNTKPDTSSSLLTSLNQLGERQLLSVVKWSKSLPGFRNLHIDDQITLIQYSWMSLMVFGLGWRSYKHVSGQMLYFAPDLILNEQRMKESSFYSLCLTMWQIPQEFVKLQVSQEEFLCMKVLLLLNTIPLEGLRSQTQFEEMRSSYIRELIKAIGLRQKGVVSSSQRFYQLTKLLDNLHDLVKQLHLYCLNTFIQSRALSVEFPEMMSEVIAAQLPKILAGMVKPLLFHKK
As to the kind of experiment: Progesterone receptor binding assay, human PR (CEREP). The note with it: 3H-R5020 as ligand, MCF7 cells as source of PR; for Ki: read-out: Human PR binding (pKi) (converted). Here is the method:
The progesterone receptor (PR) binding assays were performed at CEREP (Celle I'Evescault, France).
The binding to the human progesterone receptor (Assay Cat No: Progesterone receptor-814h) was be measured using 3H-R5020 as ligand and MCF7 cells as the source of progesterone receptor. The assay is performed as described by Eckert & Katzenellenbogen [1982]. The binding to the bovine progesterone receptor (Assay Cat No: Progesterone receptor-814) was measured using 3H-R5020 as ligand and uterus tissue as the source of progesterone receptor. The assay was performed as described by Hurd & Moudgil [1988].
The results of the receptor binding assay are presented as the individual pKi values, which were determined by measuring the binding activity to the human or bovine PR, as indicated, for a concentration range of each compound.

The test system of test [2] is T47D human breast carcinoma cells. The experiment in a line: cells. The class given is cell-based. Conditions: for activation at 0.1 µM / inhibition at 0.1 µM / IC50: Homo sapiens, T47D; for activation at 0.1 µM: 48 h, read-out: PS [100 nM] (% stimulation); for inhibition at 0.1 µM: read-out: PI [100 nM] (% inhibition); for IC50: read-out: pIC50 (converted); for PS [100 nM] (% stimulation): agonistic mode, alkaline phosphatase induction (100% = 1 nM Dydrogesterone); for PS [100 nM] (% stimulation) / PI [100 nM] (% inhibition): compound 100 nM; for PS [100 nM] (% stimulation) / PI [100 nM] (% inhibition) / pIC50: T47D cells; for PI [100 nM] (% inhibition): antagonistic mode, inhibition of alkaline phosphatase induction by 1 nM Dydrogesterone; for pIC50: antagonistic potency against 1 nM Dydrogesterone. How it is done: The progesterone-dependent modulation of alkaline phosphatase expression was examined using T47D human breast carcinoma cells [Keydar et al., 1979]. The assay was performed as previously described by Di Lorenzo et al. (1991) with the modification of using Dydrogesterone as comparative progestin to determine the antagonistic and agonistic activity.
The cell line was purchased from CLS Cell Lines Service (Hildastrasse 21, D-69214 Eppelheim, Germany). In brief, the cells were plated in 96-well plates at 40,000 cells/well using the following growth medium: RPMI 1640 with: 10% FBS, 1 mM Sodium Pyruvat MEM, 10 mM Hepes, 0.01 mg/ml Bovine insulin, and 25 μg/ml Gentamycin. After 24 h of cultivation, the growth medium was replaced with medium containing 2% fetal bovine serum and the test compounds were added to each well to achieve the appropriate compound concentration: For determination of agonistic activity only the test compounds were added; for measurement of antagonistic activity the test compounds and additionally Dydrogesterone as standard progesterone agonist was added to a final concentration of 1 nM. After 48 h of cultivation, the medium was removed and the cells were washed with 200 μl of Dulbecco's phosphate-buffered saline without calcium and magnesium (PBS(−)). Then the cells were fixed with 3.7% formaldehyde in phosphate-buffered saline for 15 min at 22° C. After washing the cells with PBS, 100 μl of a […] (pNPP) solution (pNPP Liquid Substrate System; Sigma) was added to each well and incubated for 2 h at room temperature protected from light. The reaction was stopped with 100 μl 1N NaOH and the absorbance was measured with a spectrophotometer (Victor, Perkin Elmer) at 405 nm. The results are expressed as alkaline phosphatase induction (as 100% with 1 nM Dydrogesterone) or inhibition (against alkaline phosphatase induction by 1 nM Dydrogesterone) at a certain concentration of test compound.
% stimulation=(effect compound−basal)/(effect dydro 1 nM−basal)*100% inhibition of 1 nM Dydro=100*{1-[(effect compound−basal)/(effect dydro 1 nM−basal)]}
For each compound the % inhibition (PI) and % stimulation (PS), respectively, at a compound concentration of 100 nM was determined. For selected compounds, the corresponding values were measured for several different concentrations, and subsequently were plotted against the concentration of the test compound, and used to calculate the IC50 value (for the antagonistic potency; the IC50 value is the concentration (nM), required to reduce the maximal response by 50%) and EC50 values (for the agonistic potency; the EC50 value is the effective concentration (nM) that produced 50% of the maximum response), respectively.

Regarding `CC(=O)[C@H]1CC[C@H]2[C@@H]3C=CC4=CC(=O)CC[C@@]4(C)[C@@H]3[C@@H](OC(=O)Nc3ccc4[nH]ccc4c3)C[C@]12C` [compound 91, (1H-Indol-5-yl)-carbamic aciddydrogesterone-11-yl ester], the Ki in test [1] is ≥ 631 nM. Besides, in test [2], the activation at 0.1 µM worked out at 1%, the inhibition at 0.1 µM is 58% and the IC50 is 100 nM.

`CSc1cccc(NC(=O)O[C@H]2C[C@]3(C)[C@@H](C(C)=O)CC[C@H]3[C@@H]3C=CC4=CC(=O)CC[C@@]4(C)[C@@H]32)c1` [compound 92, (3-Methylsulfanyl-phenyl)-carbamic acid dydrogesterone-11-yl ester]: in test [1], the Ki was ≥ 631 nM. In test [2], the activation at 0.1 µM came to 1%, the inhibition at 0.1 µM amounted to 55% and the IC50 is 100 nM.

Turning to `CC(=O)[C@H]1CC[C@H]2[C@@H]3C=CC4=CC(=O)CC[C@@]4(C)[C@@H]3C(OC(=O)Nc3ccc4cnn(C)c4c3)C[C@]12C` (some centres unmarked) [compound 99, (1-Methyl-1H-indazol-6-yl)-carbamic acid dydrogesterone-11-yl ester], the “Human PR binding (pKi)” value in test [1] worked out at 6.3. Further, in test [2], the “PS [100 nM] (% stimulation)” value was 0.0%, the “PI [100 nM] (% inhibition)” value worked out at 70.0% and the pIC50 was 7.1.

Regarding `CC(=O)[C@H]1CC[C@H]2[C@@H]3C=CC4=CC(=O)CC[C@@]4(C)[C@@H]3[C@@H](OC(=O)Nc3ccc4c(c3)N(C)C(=O)CO4)C[C@]12C` [compound 101, (4-Methyl-3-oxo-3,4-dihydro-2H-benzo[1,4]oxazin-6-yl)-carbamic acid dydrogesterone-11-yl ester], the Ki in test [1] is 316 nM. Further, in test [2], the activation at 0.1 µM was 0%, the inhibition at 0.1 µM is 72% and the IC50 is 79.4 nM.

For the compound `CC(=O)[C@H]1CC[C@H]2[C@@H]3C=CC4=CC(=O)CC[C@@]4(C)[C@@H]3C(OC(=O)Nc3ccc4c(c3)NC(=O)C(C)S4)C[C@]12C` (some centres unmarked) [compound 102, (2-Methyl-3-oxo-3,4-dihydro-2H-benzo[1,4]thiazin-6-yl)-carbamic acid dydrogesterone-11-yl ester], the “Human PR binding (pKi)” value in test [1] was found to be 6.3. Further, in test [2], the “PS [100 nM] (% stimulation)” value is 0.0%, the “PI [100 nM] (% inhibition)” value was 98.0% and the pIC50 was found to be 8.1.
